{"source": "patent US6187770A", "about": "“N-substituted azaheterocyclic compounds” (Novo Nordisk A/S, priority 1998, dated 2001)", "test_system": "histamine induced blood glucose rise", "experiment": "Histamine induced hyperglycemia in mice", "type": "in vivo", "conditions": "1.0 mg/kg ip, 30 min before histamine chloride (90 nmol icv); blood glucose at 0 and 40 min; male NMRI mice", "procedure": "Conscious unfasted 25 g male NMRI mice are administered histamine chloride (90 nmol) icv according to the method of Nishibori et al. (J. Pharmacol. Exp. Therap. 241, […], 1987). Blood glucose is determined at time 0 and 40 min after the histamine injection. Test compounds are administered at 1.0 mg/kg ip 30 min before the histamine injection, and % inhibition refers to the capacity of the compounds to inhibit the histamine induced blood glucose rise."}
{"smiles": "O=C(O)CCN1CCN2c3ccccc3Sc3ccccc3C2C1", "note": "(stereo not shown) [Example 4, 3-(1,3,4,14b-Tetrahydro-2H-dibenzo[b,f]pyrazino[1,2-d][1,4]thiazepin-2-yl)-propionic acid]", "values": [{"measurement": "% inhibition of histamine induced hyperglycemia", "result": 48, "unit": "%"}]}
